Like-named read-outs stand apart in the source and are kept apart here.

Assay [1] concerns armyworm. Briefly: Determination of activity against armyworm (corn leaf dip, mortality after 72 hours). The class given is in vivo. The settings on record: foliar, 10 mg/L, third instar, read-out: mortality rates against armyworm. On the procedure:
(§1) According to the solubility of test compounds, the compounds are dissolved with acetone or dimethyl sulfoxide, and then diluted with 0.1% Tween 80 solution to form a required concentration of 50 ml test liquid. The content of the acetone or the dimethyl sulfoxide in the total solution is not more than 10%.
The middle leaves of fresh corns were cut into small sections of 3 cm, and dipped into a solution of the required concentration of test compounds for 10 seconds. After dried in shade, the middle leaves were placed in a 9 cm diameter petri dish provided with filter paper. Fourteen regular healthy test insects (third instar) were put into the leaves. Four replicates were set for each treatment. The pure water treatment was set as control check. The treated discs were placed in a chamber of 24° C., 60%-70% relative humidity and day light. After 72 hours, the number of surviving insects was investigated, and the mortality rate was calculated.

Assay [2] relates to diamondback moth. The experiment in a line: Determination of activity against diamondback moth (cabbage leaf disc dip, mortality after 72 hours). The class given is in vivo. The settings on record: Plutella xylostella, foliar, 10 mg/L, second instar, read-out: mortality rates against diamondback moth. On the procedure:
as §1
The leaves of cabbage grown in greenhouse were selected, removed the surface waxy layers, punched into circular leaf discs with a diameter of 2 cm by using a puncher, and dipped into a solution of the required concentration of test compounds for 10 seconds. After dried in shade, the circular leaf discs were placed in a 9 cm diameter petri dish provided with filter paper. Ten regular healthy test insects (second instar) were put into the leaf discs. Four replicates were set for each treatment. The pure water treatment was set as control check. The treated discs were placed in a chamber of 24° C., 60%-70% relative humidity and day light. After 72 hours, the number of surviving insects was investigated, and the mortality rate was calculated.

For assay [3], the system named is western flower thrips nymphs. The experiment in a line: Determination of activity against western flower thrips nymphs (sprayed kidney bean leaves, mortality after 72 hours). Format: in vivo. The following applies: Frankliniella occidentalis; for mortality at 10 µg/mL / mortality at 100 µg/mL: read-out: Mortality (%) against Western Flower Thrips Nymphs. On the procedure: as §1
Fresh kidney bean leaves cultured in the glasshouse were selected and uniformly sprayed with 1 ml of the test liquid by using a handheld Airbrush. The leaves were dried naturally and placed in a test tube. Fifteen tidy and healthy western flower thrips nymphs were put into the leaves. Three replicates were set for each treatment. The water treatment was set as control check. After the treatment, the treated tube were placed in a chamber of 24° C., 60%-70% relative humidity and day light. After 72 hours, the number of surviving insects was investigated, and the mortality was calculated.

Assay [4] has as its system Tetranychus cinnabarinus adults. The experiment in a line: Determination of acaricidal activity (spray on bean plant leaves with adult spider mites, mortality after 72 hours). Format: in vivo. The following applies: read-out: Mortality (%) against Tetranychus Cinnabarinus Adult. On the procedure: as §1
The adult spider mites were put into two true leaves of bean plants. After the number of mites was investigated, the solution of certain concentrations of test compounds was sprayed by using a handheld Airbrush. Three replicates were set for each treatment. Then the leaves were maintained in a standard observation room. After 72 hours, the number of surviving mites was investigated, and the mortality rate was calculated. Compounds I-41, KC3, KC4 and MC were selected for parallel determination of activity against Tetranychus cinnabarinus adults.

For assay [5], the system named is Tribolium confusum adults. The experiment in a line: Determination of Tribolium confusum adults (treated feeding bran, 72 h). The class given is in vivo. On the procedure: as §1
The test liquid was prepared in the order from low dose to high dose according to the test design. Then, the liquid of different concentrations was added to feeding bran and uniformly stirred, and dried in the shade. Then, the resulting feeding bran was collected in a paper cup. Fifty Tribolium confusum adults with consistent size were put in the paper cup. Three replicates were set for each treatment. Control check was set. The treated test materials were put in an observation room under controlled conditions. After 72 h, the number of dead and surviving adults was investigated.

The subject of assay [6] is Spodoptera litura. The following applies: concentration of 1 ppm; cited from earlier work.
Assay [7] has as its system Plutella xylostella. The following applies: concentration of 1 ppm; cited from earlier work.
For assay [8], the system named is Plutella xylostella. The following applies: concentration of 200 ppm; cited from earlier work.
In assay [9] the test system is Spodoptera littoralis. The settings on record: concentration of 200 ppm; cited from earlier work.
Assay [10] relates to Tetranychus urticae koch. The settings on record: concentration of 200 ppm; cited from earlier work.
The test system of assay [11] is trips tabaci. The following applies: concentration of 200 ppm; cited from earlier work.
[12] abbreviates: 72 h, read-out: Mortality (%) against Tribolium Confusum Adults.

The term mortality denotes the percentage killed. Take `O=C(Nc1cccc(C(=O)Nc2c(Br)cc(C(F)(C(F)(F)F)C(F)(F)F)cc2OC(F)F)c1F)c1ccc2c(c1)OC(F)(F)O2` [Compound I-41]: the mortality at 10 µg/mL in assay [1] was greater than 90%; in assay [2] it was greater than 90%; in assay [3] (10 mg/L, after 72 hours), 90%; in [4] (10 mg/L, after 72 hours) it was 87%. Besides, the mortality at 100 µg/mL worked out at 95% in [3] (100 mg/L, after 72 hours) and 100% in [4] (100 mg/L, after 72 hours). Moreover, the mortality at 600 µg/mL in assay [3] (600 mg/L, after 72 hours, read-out: mortality rates against western flower thrips nymphs) was greater than 90%; in assay [4] (600 mg/L, after 72 hours) it was 100%; in assay [5] (600 mg/L, after 72 h, read-out: mortality rates against Tribolium confusum adults) it was greater than 90%.

Regarding `CN(C(=O)c1ccccc1)c1cccc(C(=O)Nc2c(Br)cc(C(F)(C(F)(F)F)C(F)(F)F)cc2C(F)(F)F)c1F` [KC3, Broflanilide], in assay [3] (72 h), the mortality at 10 µg/mL worked out at 33% and the mortality at 100 µg/mL was found to be 60%. In assay [4] (72 h), the mortality at 10 µg/mL was 0%, the mortality at 100 µg/mL came out at 0% and the mortality at 600 µg/mL was 0%. In addition, in [5] (setting [12]), the mortality at 5 µg/mL was 69% and the mortality at 20 µg/mL stood at 80%. Besides, the “activities against Spodoptera litura” value in [6] is “greater than or equal to 70%”. Moreover, the “activities against Plutella xylostella” value in [7] was “greater than or equal to 70%”.

In the case of `O=C(Nc1cccc(C(=O)Nc2c(Br)cc(C(F)(C(F)(F)F)C(F)(F)F)cc2OC(F)F)c1F)c1ccccc1` [KC4], the mortality at 10 µg/mL in [3] (10 mg/L, after 72 hours) came to 37%; in assay [4] (10 mg/L, after 72 hours), 0%. For the same compound, the mortality at 100 µg/mL amounted to 52% in assay [3] (100 mg/L, after 72 hours) and 0% in assay [4] (100 mg/L, after 72 hours). The mortality at 600 µg/mL in [4] (600 mg/L, after 72 hours) came to 0%. Moreover, in assay [8], the “activities against Plutella xylostella” value is “greater than or equal to 80%”. Also, the “activities against Spodoptera littoralis” value in assay [9] is “greater than or equal to 80%”. Further, in [10], the “activities against Tetranychus urticae koch” value is given as “greater than or equal to 80%”. Besides, the “activities against trips tabaci” value in assay [11] is “greater than or equal to 80%”.

Values taken from patent US12274264B2, “Piperonylic acid derivative and application thereof” (SHENYANG SINOCHEM AGROCHEMICALS R&D CO., LTD., priority 2019, dated 2025).
